From US8685974B2 (Bayer CropScience AG, priority 2009, dated 2014)
Marks after values point to notes of the source that are not given here.

Assays:
Alternaria solani = assay: Alternaria test (tomato) / protective; assay type: in vivo; settings: 500 ppm active compound, protective spray, evaluated 7 days after inoculation
Procedure: Alternaria Test (Tomato)/Protective
Solvent: 49 parts by weight of N,N-dimethylformamide
Emulsifier: 1 part by weight of alkylaryl polyglycol ether
To produce a suitable preparation of active compound, 1 part by weight of active compound is mixed with the stated amounts of solvent and emulsifier, and the concentrate is diluted with water to the desired concentration.
To test for protective activity, young tomato plants are sprayed with the preparation of active compound at the stated application rate. […] The plants then remain at 96% rel. atmospheric humidity and a temperature of 20° C.
Evaluation is carried out 7 days after the inoculation. 0% means an efficacy which corresponds to that of the control, whereas an efficacy of 100% means that no infection is observed.

Pyrenophora teres = assay: In vivo test on Pyrenophora teres (barley net blotch); settings: dose of 500 ppm; barley plants; grading 12 days after contamination
Procedure: In Vivo Test on Pyrenophora teres (Barley Net Blotch)
The active ingredients tested are prepared by homogenization in a mixture of acetone/Tween/DMSO, then diluted with water to obtain the desired active material concentration.
Barley plants (Plaisant variety), sown on a 50/50 peat soil-pozzolana substrate in starter cups and grown at 12° C., are treated at the 1-leaf stage (10 cm tall) by spraying with the active ingredient prepared as described above.
Plants, used as controls, are treated with an aqueous solution not containing the active material.
After 24 hours, the plants are contaminated by spraying them with an aqueous suspension of Pyrenophora teres spores (12,000 spores per ml). The spores are collected from a 12-day-old culture. The contaminated barley plants are incubated for 24 hours at about 20° C. and at 100% relative humidity, and then for 12 days at 80% relative humidity.
Grading is carried out 12 days after the contamination, in comparison with the control plants.

Fusarium graminearum = assay type: cell-based; settings: 50 μM; for % Inhibition of DON/AcDON at 50 μM: 7 days at 28° C.
[1] = pH 2.7

CCC(C)n1cc(-c2ccnc(NC(=O)COC)c2)c(-c2ccc(Cl)s2)n1 (stereo not drawn) [Example 223]
efficacy (Alternaria solani): 95%
protection (Pyrenophora teres): 95%
% Inhibition of fungal growth at 50 μM (Fusarium graminearum): 79%
% Inhibition of DON/AcDON at 50 μM (Fusarium graminearum): 99%
log p [1]: 3.68^[b]

CCC(C)n1cc(-c2ccnc(NC(=O)N(C)C)c2)c(-c2ccc(Cl)s2)n1 (stereo not drawn) [Example 227]
efficacy (Alternaria solani): 80%
protection (Pyrenophora teres): 95%
% Inhibition of fungal growth at 50 μM (Fusarium graminearum): 100%
% Inhibition of DON/AcDON at 50 μM (Fusarium graminearum): 99%
log p [1]: 2.19^[b]

CCC(C)C(=O)Nc1cc(-c2cn(C(C)CC)nc2-c2ccc(Cl)s2)ccn1 (stereo not drawn) [Example 228]
efficacy (Alternaria solani): 70%
protection (Pyrenophora teres): 90%
% Inhibition of fungal growth at 50 μM (Fusarium graminearum): 49%
% Inhibition of DON/AcDON at 50 μM (Fusarium graminearum): 92%
log p [1]: 4.05^[b]

CCC(C)n1cc(-c2ccnc(NC(=O)CC3CC3)c2)c(-c2ccc(Cl)s2)n1 (stereo not drawn) [Example 229]
efficacy (Alternaria solani): 95%
protection (Pyrenophora teres): 90%
% Inhibition of fungal growth at 50 μM (Fusarium graminearum): 82%
% Inhibition of DON/AcDON at 50 μM (Fusarium graminearum): 98%
log p [1]: 3.81^[b]

CCC(C)n1cc(-c2ccnc(NC(=O)CC(C)C)c2)c(-c2ccc(Cl)s2)n1 (stereo not drawn) [Example 235]
efficacy (Alternaria solani): 95%
protection (Pyrenophora teres): 95%
% Inhibition of fungal growth at 50 μM (Fusarium graminearum): 0%
% Inhibition of DON/AcDON at 50 μM (Fusarium graminearum): 86%
log p [1]: 4.08^[b]

CCC(C)n1cc(-c2ccnc(NC(=O)C3CCC3)c2)c(-c2ccc(Cl)s2)n1 (stereo not drawn) [Example 240]
efficacy (Alternaria solani): 95%
protection (Pyrenophora teres): 90%
% Inhibition of fungal growth at 50 μM (Fusarium graminearum): 37%
% Inhibition of DON/AcDON at 50 μM (Fusarium graminearum): 99%
log p [1]: 3.81^[b]

CC(C)n1cc(-c2ccnc(NC(=O)CC3CC3)c2)c(-c2ccc(Cl)s2)n1 [Example 250]
efficacy (Alternaria solani): 90%
protection (Pyrenophora teres): 100%
% Inhibition of fungal growth at 50 μM (Fusarium graminearum): 29%
% Inhibition of DON/AcDON at 50 μM (Fusarium graminearum): 99%
log p [1]: 3.37^[b]

CCn1cc(-c2ccnc(NC(=O)CC3CC3)c2)c(-c2ccc(Cl)s2)n1 [Example 253]
efficacy (Alternaria solani): 95%
protection (Pyrenophora teres): 100%
% Inhibition of fungal growth at 50 μM (Fusarium graminearum): 100%
% Inhibition of DON/AcDON at 50 μM (Fusarium graminearum): 99%
log p [1]: 2.94^[b]

CCn1cc(-c2ccnc(NC(=O)COC)c2)c(-c2ccc(Cl)s2)n1 [Example 261]
efficacy (Alternaria solani): 90%
protection (Pyrenophora teres): 90%
% Inhibition of fungal growth at 50 μM (Fusarium graminearum): 96%
% Inhibition of DON/AcDON at 50 μM (Fusarium graminearum): 98%
log p [1]: 2.78^[b]

CC(C)CC(=O)Nc1cc(-c2cn(C)nc2-c2ccc(Cl)s2)ccn1 [Example 270]
efficacy (Alternaria solani): 95%
protection (Pyrenophora teres): 95%
% Inhibition of fungal growth at 50 μM (Fusarium graminearum): 49%
% Inhibition of DON/AcDON at 50 μM (Fusarium graminearum): 98%
log p [1]: 2.75^[b]

COCC(=O)Nc1cc(-c2cn(C)nc2-c2ccc(Cl)s2)ccn1 [Example 276]
efficacy (Alternaria solani): 90%
protection (Pyrenophora teres): 80%
% Inhibition of fungal growth at 50 μM (Fusarium graminearum): 98%
% Inhibition of DON/AcDON at 50 μM (Fusarium graminearum): 98%
log p [1]: 2.4^[b]

CC(=O)N(C(C)=O)c1cc(-c2cnn(/C=C/F)c2-c2ccc(Cl)s2)ccn1 [Example 291]
efficacy (Alternaria solani): 90%
protection (Pyrenophora teres): 95%
% Inhibition of fungal growth at 50 μM (Fusarium graminearum): 18%
% Inhibition of DON/AcDON at 50 μM (Fusarium graminearum): 100%
log p [1]: 3.39^[b]

CC(=O)Nc1cc(-c2cn(/C=C/F)nc2-c2ccc(Cl)s2)ccn1 [Example 293]
efficacy (Alternaria solani): 80%
protection (Pyrenophora teres): 90%
% Inhibition of fungal growth at 50 μM (Fusarium graminearum): 32%
% Inhibition of DON/AcDON at 50 μM (Fusarium graminearum): 100%
log p [1]: 2.52^[b]

CC(=O)N(C(C)=O)c1cc(-c2cn(/C=C/F)nc2-c2ccc(Cl)s2)ccn1 [Example 297]
efficacy (Alternaria solani): 90%
protection (Pyrenophora teres): 80%
% Inhibition of fungal growth at 50 μM (Fusarium graminearum): 0%
% Inhibition of DON/AcDON at 50 μM (Fusarium graminearum): 100%
log p [1]: 3.09^[b]

CC(=O)N(C(C)=O)c1cc(-c2cn(C)nc2-c2ccc(Cl)s2)ccn1 [Example 303]
efficacy (Alternaria solani): 95%
protection (Pyrenophora teres): 70%
% Inhibition of fungal growth at 50 μM (Fusarium graminearum): 83%
% Inhibition of DON/AcDON at 50 μM (Fusarium graminearum): 100%
log p [1]: 2.52^[b]
